Results published in US11091486B2, “Process for the preparation of pyrazolo[1,5-a]pyrimidines and salts thereof” (Array BioPharma Inc., priority 2016, dated 2021).

Columns and labels:
[1] = Thermodynamic aqueous solubility of a crystalline solid (Example 33); format: physicochemical; conditions: aqueous phosphate buffer, thermodynamic from solid, pH 6.5 buffer, 24 hours at room temperature
Protocol: General method to measure the thermodynamic aqueous solubility of a crystalline, organic solid.
To make a 0.03 M (30 mM) Phosphate Buffer (25° C.) at pH 7.4, the above recipe was adjusted as follows: 6.72 mL of 1 M potassium phosphate (monobasic) were mixed with 23.28 mL of 1 M potassium phosphate (dibasic) and diluted to one liter with water. The pH was adjusted with HCl or NaOH. Alternatively, 0.9144 g (6.72×10^−3 mol) of potassium phosphate monobasic were mixed with 4.0908 g (23.28×10^−3 mol) of potassium phosphate dibasic and diluted to 1 L with water to get a 30 mM solution of Phosphate Buffer (25° C.).
2. Aqueous phosphate buffer, 30 mM, adjusted to pH 6.5
1. ˜0.5 mg of compound were dissolved in 2.5% DMSO/MeOH (or other organic) to a final concentration of 250 μg/mL stock
• 1. ≥0.5 mg of compound were accurately weighed into a 4-mL vial for each pH to be tested. • 2. The appropriate amount of desired buffer was added to the appropriate vials to get a resulting concentration of 1.02 mg/mL. • 3. Vials were capped and shaken at 350 rpm for 24 hours at room temperature. • 4. ˜450 μL of sample solutions were pipetted from 4-mL vials into 96 DWP. • 5. The plate was centrifuged at 3500 rpm for 10 minutes at 20° C. and 250 μL of supernatant were transferred to catch plate. • 6. […]
4. The model was used to quantify the amount of compound in the aqueous solutions. […]

[2] = system: Rat cryopreserved hepatocytes; test: In vitro metabolic stability in rat hepatocytes (Example 34); format: in vitro ADME, Sprague Dawley rat; conditions: 1 μM, predicted hepatic extraction ratio
Protocol: In vitro metabolic stabilities were studied at a concentration of 1 μM in the presence of liver microsomes and isolated hepatocytes.
A stock solution of the test compound was prepared at 10 mM (active compound) in DMSO. The in vitro stability of the test compound (1 μM) was assessed in the presence of hepatocytes as follows. Cryopreserved hepatocytes were thawed, isolated from shipping media and diluted to a density of 1×10^6 viable cells/mL, according to the supplier's guidelines, using Dulbecco's Modified Eagle Medium, 1×, high glucose (DMEM, Invitrogen, Carlsbad, Calif.). Viability was determined by trypan blue exclusion using a hemocytometer (3500 Hausser, VWR, West Chester, Pa.). […]
Data were acquired and peak areas were calculated for test compounds and the internal standard using Analyst 1.6.1 software (Sciex). […]
All calculations were performed using BioAssay Enterprise. The mean peak area ratios were calculated by averaging the peak area ratios (n=2) of test compound and the internal standard for each sample. Percent remaining was calculated by determining the ratio of the peak area ratio at each time point to the peak area ratio of the time-zero samples. The rate of loss of test compound (km) was determined by linear regression of—1n(f(t)) versus time. […] The t½ was determined dividing 1n(2) by km. […]

Compound	solubility at 24 h [1] [µg/mL]	Rat Hepatocyte Clearance (% ER) [2] [% ER]
C[C@@H]1CCc2ncc(F)cc2[C@H]2CCCN2c2ccn3ncc(c3n2)C(=O)N1 [Formula I]	111	64
C[C@H]1CCc2ncc(F)cc2[C@H]2CCCN2c2ccn3ncc(c3n2)C(=O)N1 [formula I′]	43	83
